Experimental data taken from the supplement of paper PMC4862054.

Key:
Details in all cases: incubation time: 72 h
MDA-MB-436 [1] = experiment: normalised response (% of control), CellTox Green; higher = less cell death (100 = DMSO, 0 = benzethonium chloride kill control)
Summary of the method: (§1)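 After 72 h with compound in 384-well plates, breast cancer cell lines seeded as 20 µl suspension were read for CellTox Green fluorescence at 485/520 nm. CellTiter-Glo luminescence was then read after 10 min at room temperature. Compound was present at 5 concentrations in 10-fold steps over a 10,000-fold range set per compound, and plates were normalised to 0.1 % DMSO (100) and a positive kill control (0). Values are normalised signals, each at a single concentration.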

BT-474 [2] = experiment: as above
Summary of the method: as §1

HCC1599 [3] = experiment: as above
Summary of the method: as §1

MFM-223 [4] = experiment: as above
Summary of the method: as §1

MDA-MB-231 [5] = experiment: as above
Summary of the method: as §1

CAL-120 [6] = experiment: as above
Summary of the method: as §1

MDA-MB-453 [7] = experiment: as above
Summary of the method: as §1

MDA-MB-468 [8] = experiment: as above
Summary of the method: as §1

DU-4475 [9] = experiment: as above
Summary of the method: as §1

CAL-85-1 [10] = experiment: as above
Summary of the method: as §1

CAL-51 [11] = experiment: as above
Summary of the method: as §1

BT-549 [12] = experiment: as above
Summary of the method: as §1

MCF-10A [13] = experiment: as above
Summary of the method: as §1

Hs578T [14] = experiment: as above
Summary of the method: as §1

HDQ-P1 [15] = experiment: as above
Summary of the method: as §1

HCC1937 [16] = experiment: as above
Summary of the method: as §1

CAL-148 [17] = experiment: as above
Summary of the method: as §1

HCC1143 [18] = experiment: as above
Summary of the method: as §1

MDA-MB-436 [19] = experiment: normalised response (% of control), CellTiter-Glo; higher = more viable cells (100 = DMSO, 0 = benzethonium chloride kill control)
Experimental: (§2)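 DSRT, 72 h incubation, CellTox Green / CellTiter-Glo readout. Signal is normalised to DMSO and benzethonium chloride controls. Value is the normalised response at the highest dose.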

BT-474 [20] = experiment: as above
Experimental: as §2

HCC1599 [21] = experiment: as above
Experimental: as §2

SK-BR-3 = experiment: as above
Experimental: as §2

MFM-223 [22] = experiment: as above
Experimental: as §2

MDA-MB-231 [23] = experiment: as above
Experimental: as §2

CAL-120 [24] = experiment: as above
Experimental: as §2

MDA-MB-453 [25] = experiment: as above
Experimental: as §2

MDA-MB-468 [26] = experiment: as above
Experimental: as §2

DU-4475 [27] = experiment: as above
Experimental: as §2

CAL-85-1 [28] = experiment: as above
Experimental: as §2

CAL-51 [29] = experiment: as above
Experimental: as §2

BT-549 [30] = experiment: as above
Experimental: as §2

MCF-10A [31] = experiment: as above
Experimental: as §2

Hs578T [32] = experiment: as above
Experimental: as §2

HDQ-P1 [33] = experiment: as above
Experimental: as §2

HCC1937 [34] = experiment: as above
Experimental: as §2

CAL-148 [35] = experiment: as above
Experimental: as §2

HCC1143 [36] = experiment: as above
Experimental: as §2

Compound	normalised response (MDA-MB-436 [1]) [%]	normalised response (BT-474 [2]) [%]	normalised response (HCC1599 [3]) [%]	normalised response (MFM-223 [4]) [%]	normalised response (MDA-MB-231 [5]) [%]	normalised response (CAL-120 [6]) [%]	normalised response (MDA-MB-453 [7]) [%]	normalised response (MDA-MB-468 [8]) [%]	normalised response (DU-4475 [9]) [%]	normalised response (CAL-85-1 [10]) [%]	normalised response (CAL-51 [11]) [%]	normalised response (BT-549 [12]) [%]	normalised response (MCF-10A [13]) [%]	normalised response (Hs578T [14]) [%]	normalised response (HDQ-P1 [15]) [%]	normalised response (HCC1937 [16]) [%]	normalised response (CAL-148 [17]) [%]	normalised response (HCC1143 [18]) [%]	normalised response (MDA-MB-436 [19]) [%]	normalised response (BT-474 [20]) [%]	normalised response (HCC1599 [21]) [%]	normalised response (SK-BR-3) [%]	normalised response (MFM-223 [22]) [%]	normalised response (MDA-MB-231 [23]) [%]	normalised response (CAL-120 [24]) [%]	normalised response (MDA-MB-453 [25]) [%]	normalised response (MDA-MB-468 [26]) [%]	normalised response (DU-4475 [27]) [%]	normalised response (CAL-85-1 [28]) [%]	normalised response (CAL-51 [29]) [%]	normalised response (BT-549 [30]) [%]	normalised response (MCF-10A [31]) [%]	normalised response (Hs578T [32]) [%]	normalised response (HDQ-P1 [33]) [%]	normalised response (HCC1937 [34]) [%]	normalised response (CAL-148 [35]) [%]	normalised response (HCC1143 [36]) [%]
O=C(NC[C@H](O)CO)c1ccncc1Nc1ccc(I)cc1F [Pimasertib] (10000 nM)	100	88.3	105	64.9	70.1	72.1	112	169	72.9	51.5	93.8	125	95.4	105	81.8	91	99.6	124	79.7	53	89.8	58.6	63	54	65.4	89.2	53.5	0.07	40.8	90.2	84.2	26.6	64.6	55.1	68.1	71.6	79.1
c1cc(CN2CCCNCCNCCCNCC2)ccc1CN1CCCNCCNCCCNCC1 [Plerixafor] (10000 nM)	95.5	99.7	98.2	96.9	96	95.2	80.5	69.7	92.3	117	85.7	52.3	94.2	102	104	104	98.5	101	97.9	90.9	99.8	79.1	87.2	94.2	108	78.3	106	88.6	96	124	107	82.6	92.3	98.2	97.3	91.8	102
Cn1cc(CNCC2CCN(c3ncc(C(=O)NO)cn3)CC2)c2ccccc21 [Quisinostat] (1000 nM)	91.8	35.7	71.7	66.2	-24.8	-15.2	87.9	31.9	77.2	-55.4	-21.8	64.2	56.8	9.9	52.1	82	-22.9	57.9	34.8	6.87	6.82	0.06	32.8	6.24	10.8	2.11	10.2	15.9	4.67	7.13	10.2	10.7	5.64	25.7	22.7	0.34	13.9
CC[C@@]1(O)C(=O)OCc2c1cc1n(c2=O)Cc2cc3c(CN(C)C)c(O)ccc3nc2-1 [Topotecan] (10000 nM)	29.1	88.4	71.7	43.5	46.1	49.3	85.1	29.5	60.8	42.3	-18.1	56.9	55.5	102	69.8	18.6	7.1	87.9	21	47.8	9.36	19.6	61.7	43.1	37	33.2	4.47	0.66	21.6	15.2	22.1	39	55.2	54.5	15.3	0.39	26.9
